Laboratory results as given in patent publication US20230117324A1, “OXAZINE MONOACYLGLYCEROL LIPASE (MAGL) INHIBITORS” (Hoffmann-La Roche Inc., priority 2018, published 2023).
pIC50: −log10 of the molar value.

molecular target: T1, MAGL (Homo sapiens, UniProt Q99685); test: MAGL inhibition, 2-AG assay (hydrolysis of 2-arachidonoylglycerol, arachidonic acid by mass spectrometry); type: biochemical; settings: 2-AG assay (footnote [b])
T1 sequence (Q99685 1-303): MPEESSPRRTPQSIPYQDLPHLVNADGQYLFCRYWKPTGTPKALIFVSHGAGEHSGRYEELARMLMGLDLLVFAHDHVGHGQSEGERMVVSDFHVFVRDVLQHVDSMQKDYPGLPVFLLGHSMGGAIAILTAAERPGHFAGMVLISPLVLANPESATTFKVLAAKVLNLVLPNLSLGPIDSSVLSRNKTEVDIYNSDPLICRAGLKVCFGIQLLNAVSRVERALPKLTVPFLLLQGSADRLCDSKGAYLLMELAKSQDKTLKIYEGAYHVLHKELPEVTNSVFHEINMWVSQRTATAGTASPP
How it was run: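 Human MAGL […] was preincubated 15 min at RT with compound ([…], 3-fold steps) in 50 mM Tris, 1 mM EDTA, 0.01% Tween. 2-AG (8 μM) was then added for 30 min at RT. Arachidonic acid was quantified by RapidFire SPE–triple quadrupole MS in negative ESI as its ratio to a d8-arachidonic acid standard.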

Row | SMILES | pIC50
1 | O=C1CO[C@H]2CCN(C(=O)N3CC(c4ccc(N5CC(C(F)(F)F)C5)cc4)C3)C[C@H]2N1 [Example 129, (4aR,8aS)-6-(3-(4-(3-(Trifluoromethyl)azetidin-1-yl)phenyl)azetidine-1-carbonyl)hexahydro-2H-pyrido[4,3-b][1,4]oxazin-3(4H)-one] | 8.70
2 | NC(=O)c1ccccc1-c1ccc(C2CN(C(=O)N3CC[C@@H]4OCC(=O)N[C@@H]4C3)C2)cc1 [Example 130, 2-[4-[1-[(4aR,8aS)-3-Oxo-4,4a,5,7,8,8a-hexahydropyrido[4,3-b][1,4]oxazine-6-carbonyl]azetidin-3-yl]phenyl]benzamide] | 8.40
3 | O=C1CO[C@H]2CCN(C(=O)N3CC(c4ccc(-c5ccc(Cl)cc5F)cc4)C3)C[C@H]2N1 [Example 133, (4aR,8aS)-6-[3-[4-(4-Chloro-2-fluoro-phenyl)phenyl]azetidine-1-carbonyl]-4,4a,5,7,8,8a-hexahydropyrido[4,3-b][1,4]oxazin-3-one] | 9.70
4 | O=C1CO[C@H]2CCN(C(=O)N3CC(c4ccc(-c5ccc(F)cc5Cl)cc4)C3)C[C@H]2N1 [Example 134, (4aR,8aS)-6-[3-[4-(2-Chloro-4-fluoro-phenyl)phenyl]azetidine-1-carbonyl]-4,4a,5,7,8,8a-hexahydropyrido[4,3-b][1,4]oxazin-3-one] | 10.00
5 | Cc1ccccc1-c1ccc(C2CN(C(=O)N3CC[C@@H]4OCC(=O)N[C@@H]4C3)C2)cc1 [Example 137, (4aR,8aS)-6-(3-(2′-Methyl-[1,1′-biphenyl]-4-yl)azetidine-1-carbonyl)hexahydro-2H-pyrido[4,3-b][1,4]oxazin-3(4H)-one] | 10.00
6 | CC(OC1CN(c2ccc(C3CN(C(=O)N4CC[C@@H]5OCC(=O)N[C@@H]5C4)C3)cc2)C1)C(F)(F)F (stereo partly drawn) [Example 138, (4aR,8aS)-6-(3-(4-(3-((1,1,1-Trifluoropropan-2-yl)oxy)azetidin-1-yl)phenyl)azetidine-1-carbonyl)hexahydro-2H-pyrido[4,3-b][1,4]oxazin-3(4H)-one] | 9.00
7 | O=C1CO[C@H]2CCN(C(=O)N3CC(c4ccc(-c5ccccc5)cc4)C3)C[C@H]2N1 [Example 141, (4aR,8aS)-6-[3-(4-Phenylphenyl)azetidine-1-carbonyl]-4,4a,5,7,8,8a-hexahydropyrido[4,3-b][1,4]oxazin-3-one] | 8.70
8 | O=C1CO[C@H]2CCN(C(=O)N3CC(c4ccc(-c5ccccc5C(F)F)cc4)C3)C[C@H]2N1 [Example 142, (4aR,8aS)-6-[3-[4-[2-(Difluoromethyl)phenyl]phenyl]azetidine-1-carbonyl]-4,4a,5,7,8,8a-hexahydropyrido[4,3-b][1,4]oxazin-3-one] | 10.00
9 | Cc1ccc(-c2ccc(C3CN(C(=O)N4CC[C@@H]5OCC(=O)N[C@@H]5C4)C3)cc2)cc1 [Example 144, (4aR,8aS)-6-(3-(4′-Methyl-[1,1′-biphenyl]-4-yl)azetidine-1-carbonyl)hexahydro-2H-pyrido[4,3-b][1,4]oxazin-3(4H)-one] | 9.00
10 | CC(C)(OC1CN(c2ccc(C3CN(C(=O)N4CC[C@@H]5OCC(=O)N[C@@H]5C4)C3)cc2)C1)C(F)(F)F [Example 147, (4aR,8aS)-6-(3-(4-(3-((1,1,1-Trifluoro-2-methylpropan-2-yl)oxy)azetidin-1-yl)phenyl)azetidine-1-carbonyl)hexahydro-2H-pyrido[4,3-b][1,4]oxazin-3(4H)-one] | 9.00
11 | CC1(C)CCN(c2ccc(C3CN(C(=O)N4CC[C@@H]5OCC(=O)N[C@@H]5C4)C3)cc2)C1 [Example 152, (4aR,8aS)-6-(3-(4-(3,3-Dimethylpyrrolidin-1-yl)phenyl)azetidine-1-carbonyl)hexahydro-2H-pyrido[4,3-b][1,4]oxazin-3(4H)-one] | 9.40
12 | O=C1CO[C@H]2CCN(C(=O)N3CC(c4ccc(N5CC(OC(F)(F)F)C5)cc4)C3)C[C@H]2N1 [Example 153, (4aR,8aS)-6-(3-(4-(3-(Trifluoromethoxy)azetidin-1-yl)phenyl)azetidine-1-carbonyl)hexahydro-2H-pyrido[4,3-b][1,4]oxazin-3(4H)-one] | 8.70
13 | O=C1CO[C@H]2CCN(C(=O)N3CC(c4ccc(-c5ccc(Cl)cc5Cl)nc4)C3)C[C@H]2N1 [Example 154, (4aR,8aS)-6-(3-(6-(2,4-Dichlorophenyl)pyridin-3-yl)azetidine-1-carbonyl)hexahydro-2H-pyrido[4,3-b][1,4]oxazin-3(4H)-one] | 9.00

The next lines start with the values.

Row | pIC50 | SMILES
14 | 9.40 | O=C1CO[C@H]2CCN(C(=O)N3CC(c4ccc(-c5ccccc5)c(Cl)c4)C3)C[C@H]2N1 [Example 131, (4aR,8aS)-6-(3-(2-Chloro-[1,1′-biphenyl]-4-yl)azetidine-1-carbonyl)hexahydro-2H-pyrido[4,3-b][1,4]oxazin-3(4H)-one]
15 | 8.00 | O=C1CO[C@H]2CCN(C(=O)N3CC(c4ccc(Br)c(Cl)c4)C3)C[C@H]2N1 [Example 132, (4aR,8aS)-6-(3-(4-Bromo-3-chlorophenyl)azetidine-1-carbonyl)hexahydro-2H-pyrido[4,3-b][1,4]oxazin-3(4H)-one]
16 | 7.57 | O=C1CO[C@H]2CCN(C(=O)N3CC(c4cccc(Br)c4)C3)C[C@H]2N1 [Example 139, (4aR,8aS)-6-(3-(3-Bromophenyl)azetidine-1-carbonyl)hexahydro-2H-pyrido[4,3-b][1,4]oxazin-3(4H)-one]
17 | 9.22 | CC(C)(C)c1ccc(C2CN(C(=O)N3CC[C@@H]4OCC(=O)N[C@@H]4C3)C2)cc1 [Example 140, (4aR,8aS)-6-(3-(4-(tert-Butyl)phenyl)azetidine-1-carbonyl)hexahydro-2H-pyrido[4,3-b][1,4]oxazin-3(4H)-one]
18 | 9.00 | Cc1cccc(-c2ccc(C3CN(C(=O)N4CC[C@@H]5OCC(=O)N[C@@H]5C4)C3)cc2)c1 [Example 143, (4aR,8aS)-6-(3-(3′-Methyl-[1,1′-biphenyl]-4-yl)azetidine-1-carbonyl)hexahydro-2H-pyrido[4,3-b][1,4]oxazin-3(4H)-one]
19 | 5.37 | O=C1CO[C@H]2CCN(C(=O)N3CC(c4ccc(Cl)nc4)C3)C[C@H]2N1 [Example 145, (4aR,8aS)-6-(3-(6-Chloropyridin-3-yl)azetidine-1-carbonyl)hexahydro-2H-pyrido[4,3-b][1,4]oxazin-3(4H)-one]
20 | 7.47 | O=C1CO[C@H]2CCN(C(=O)N3CC(c4ccc(C(F)(F)F)cc4)C3)C[C@H]2N1 [Example 146, (4aR,8aS)-6-(3-(4-(Trifluoromethyl)phenyl)azetidine-1-carbonyl)hexahydro-2H-pyrido[4,3-b][1,4]oxazin-3(4H)-one]
21 | 7.85 | CC(F)(F)c1ccc(C2CN(C(=O)N3CC[C@@H]4OCC(=O)N[C@@H]4C3)C2)cc1 [Example 148, (4aR,8aS)-6-(3-(4-(1,1-Difluoroethyl)phenyl)azetidine-1-carbonyl)hexahydro-2H-pyrido[4,3-b][1,4]oxazin-3(4H)-one]
22 | 8.30 | CC1CN(c2ccc(C3CN(C(=O)N4CC[C@@H]5OCC(=O)N[C@@H]5C4)C3)cc2)C1 [Example 151, (4aR,8aS)-6-(3-(4-(3-Methylazetidin-1-yl)phenyl)azetidine-1-carbonyl)hexahydro-2H-pyrido[4,3-b][1,4]oxazin-3(4H)-one]
